Target: T1, Endothelin-1 receptor (Mus musculus, UniProt Q61614)
T1 sequence (Q61614 whole entry): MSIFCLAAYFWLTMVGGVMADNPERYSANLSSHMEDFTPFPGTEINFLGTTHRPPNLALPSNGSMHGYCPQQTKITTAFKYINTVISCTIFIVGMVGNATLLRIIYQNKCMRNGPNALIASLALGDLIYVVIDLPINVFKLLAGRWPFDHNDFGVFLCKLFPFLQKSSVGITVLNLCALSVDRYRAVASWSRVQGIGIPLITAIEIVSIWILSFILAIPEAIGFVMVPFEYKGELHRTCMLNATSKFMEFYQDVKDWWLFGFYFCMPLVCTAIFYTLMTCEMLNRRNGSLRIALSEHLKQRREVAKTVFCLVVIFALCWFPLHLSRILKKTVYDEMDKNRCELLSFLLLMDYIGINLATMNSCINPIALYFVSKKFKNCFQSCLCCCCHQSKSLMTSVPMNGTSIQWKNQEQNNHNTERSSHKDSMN
Assay: Binding affinity for Endothelin A receptor was determined in murine 3T3 cells
Type: cell-based, NIH3T3

IC50	SMILES
250 nM	CC[C@H](C)[C@H](NC(=O)[C@@H](NC(=O)[C@@H](CC(=O)O)NC(=O)[C@H](N)CCCNC(=O)[C@H](Cc1ccccc1)NC(C)=O)[C@@H](C)CC)C(=O)N[C@@H](Cc1c[nH]c2ccccc12)C(=O)O
230 nM	CC[C@H](C)[C@H](NC(=O)[C@H](CC(=O)O)NC(=O)[C@@H](N)CCCNC(=O)[C@H](Cc1ccccc1)NC(C)=O)C(=O)N[C@H](C(=O)N[C@@H](Cc1c[nH]c2ccccc12)C(=O)O)[C@@H](C)CC
900 nM	CC[C@H](C)[C@H](NC(=O)[C@H](CC(=O)O)NC(=O)[C@H](N)CCCNC(=O)[C@H](Cc1ccccc1)NC(C)=O)C(=O)N[C@@H](C(=O)N[C@@H](Cc1c[nH]c2ccccc12)C(=O)O)[C@@H](C)CC

Reference: ChEMBL document CHEMBL1150490, “Endothelin eceptor Ligands. Multiple D-Amino acid replacement net approach” (Bioorg Med Chem Lett, 1993)
